# Reference: US9198909B1, “Materials and methods for inhibiting mamalian S-nitrosoglutathione reductase” (Indiana University Research and Technology Corporation, priority 2007, dated 2015)
# Assays:
# [1] = molecular target: T1, GSNOR•NADH complex (Homo sapiens, UniProt P11766); assay: Fluorescence equilibrium binding to GSNOR•NADH complex; settings: 1.7 μM NADH, 2 μM GSNOR, 50 μM compound 8
# T1 construct: made in house; host or cells: E. coli
# Procedure: Referring now to FIG. 2, (A) Changes in the fluorescence of NADH (curve a) upon sequential addition of GSNOR (curve b) and compound 8 (curve c). To a solution of 1.7 μM NADH were added 2 μM GSNOR and 50 μM compound 8 in sequence and the fluorescence of the solution measured each time (λexc=350 nm; λemm=375-550 nm); (B) Changes in the fluorescence of NADH (curve a) upon sequential addition of GSNOR (curve b), 12-HDDA (curve c) and compound 8 (curve d). To a solution of 1.7 μM NADH were added 2 μM GSNOR, 810 μM 12-HDDA and 50 μM compound 8 in sequence and the fluorescence measured each time (λexc=350 nm; λemm=375-550 nm); (C) Binding of compound 8 to GSNOR•NADH complex. The change in fluorescence of a 1.7 μM NADH and 2 μM GSNOR mixture (λexc=350 nm; λemm=455 nm) with increasing concentrations of compound 8 was fitted to a single site binding model (equation 1; see materials and methods) using the Graphpad Prizm 4. All of the fluorescence studies were conducted at room temperature in 50 mM potassium phosphate pH 7.5.
# Referring now to Table 3, inhibition experiments were performed at 25° C. in 50 mM potassium phosphate (pH 7.5) including 0.1 mM EDTA. […] The dissociation constant was measured at 25° C. in 50 mM potassium phosphate pH 7.5. […]
# Fluorescence studies were conducted in 50 mM potassium phosphate pH 7.5, at room temperature using a Fluoromax-2 fluorescence spectrometer (Instruments S.A., Inc., Edison, N.J.). The equilibrium dissociation constant of GSNOR inhibitors was determined by measuring the changes in the fluorescence of GSNOR bound NADH (λexc=350 nm; λemm=455 nm) upon the addition of inhibitor. […] The decrease in fluorescence at 455 nm with each addition of inhibitor was plotted against the final concentration of inhibitor and the data were fitted to equation 1 using nonlinear regression to obtain the dissociation constant of the inhibitor for GSNOR-NADH complex,
# [formula] In equation 1, ΔF is the change in the fluorescence at 455 nm upon the addition of inhibitor. ΔFM is the maximum fluorescence change that was obtained from curve fitting. […]
# [2] = test system: mouse aorta segments; assay: Wire myography, relaxation of aortic rings
# Procedure: Referring now to FIG. 5, mouse aorta segments were equilibrated in oxygenated PSS (95% O2 and 5% CO2) at 37° C. Following equilibration, 1 μM phenylephrine was added to each ring for submaximal contraction. After stabilization, increasing concentrations (10−9 M to 10−4 M) of either compound 8 or sodium nitroprusside (SNP) was added to the rings and the tone of the rings determined (B) Inhibition of compound 8 induced relaxation of aortal rings by nitric oxide synthase inhibitor, L-NAME. To pre-equilibrated and submaximally contracted aortal rings with phenylephrine (1 micromolar), LNAME (500 micromolar) was added to the bath and allowed to incubate for 30 minutes. […] Each experiment was performed using two rings from three different mice and the mean (±SEM) for each response determined.
# Mice were anesthetized with diethyl ether. A thoracotomy was performed to expose thoracic and abdominal aorta. A 25 gauge syringe was inserted into the apex of left ventricle and perfused free of blood with oxygenated Krebs Henseleit buffer. The right atrium was cut to provide an exit for blood. The aorta was removed and cleaned of fat and adventitia. The aorta was cut into 2-mm-long segments and mounted on a four-channel wire myograph (AD Instruments). Vessel rings were maintained in 10-ml organ baths with oxygenated PSS (95% O2 and 5% CO2) at 37° C. Rings were allowed to equilibrate for 80 minutes with the buffer in each organ bath changed every 20 min. One gram pretension was placed on each aortic ring (appropriate starting tension for optimal vasomotor function as determined in previous experiments). An eight-channel octal bridge (Powerlab) and data-acquisition software (Chart version 5.2.2) were used to record all force measurements. After equilibration for 80 min, 1 μM 27 phenylephrine was added to each ring for submaximal contraction. After stabilization, either compound 8 or sodium nitroprusside (SNP) was added to the rings and the tone of the rings determined. For the determination of SNP and ACh dose-response relationships, aortic rings were precontracted with 10−6 M PE, and SNP or compound 8 was then added in increasing concentrations from 10−9 M to 10−4 M. In a subset of experiments, L-NAME was added (500 μM final) to the bath and allowed to incubate for 30 minutes. After 30 minutes, compound 8 was added and the tone of the rings determined as described above.
# [3] = direct comparison with sodium nitroprusside
# T1 sequence (P11766 2-374 limits assumed, one chain of several): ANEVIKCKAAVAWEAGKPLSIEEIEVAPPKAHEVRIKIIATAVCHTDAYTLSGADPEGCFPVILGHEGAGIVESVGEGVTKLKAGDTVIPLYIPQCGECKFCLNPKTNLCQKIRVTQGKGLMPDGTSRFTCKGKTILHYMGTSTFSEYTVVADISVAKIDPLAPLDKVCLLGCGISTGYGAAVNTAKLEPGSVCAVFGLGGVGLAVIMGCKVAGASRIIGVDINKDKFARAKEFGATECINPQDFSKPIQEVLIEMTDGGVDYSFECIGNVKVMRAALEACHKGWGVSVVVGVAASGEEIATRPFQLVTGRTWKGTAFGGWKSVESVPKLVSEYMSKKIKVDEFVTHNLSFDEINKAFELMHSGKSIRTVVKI
structure (smiles),measurement,setting,value
N#Cc1ccccc1CSc1nc2ccsc2c(=O)n1Cc1ccc(C(=O)O)cc1 [Compound 8],effect on fluorescence of GSNOR bound NADH,[1],decreased the fluorescence of NADH
same,effect on GSNOR•NADH•12-HDDA complex (displacement of 12-HDDA),[1]; 810 μM 12-HDDA,displaced 12-HDDA from the active site
same,time to begin relaxation,[2],around 3 minutes
same,duration of sustained vessel relaxation,[2]; 50 μM,up to 2 hours
same,relaxation of the vessels,[2]; 50 μM,completely relaxed
same,time to complete relaxation,[2]; 50 μM,≤ 15 min
same,inhibition of vasorelaxation by L-NAME preincubation,"[2]; 500 μM L-NAME for 30 minutes, then 50 μM compound 8",roughly 58%
same,duration of the effect compared with SNP,[2]; [3],much longer than with SNP
same,potency at relaxing vascular smooth muscle compared with SNP,[2]; [3],less potent than SNP
same,EC50,"[2]; rings precontracted with 1 μM phenylephrine, read-out: EC50 of vessel relaxation",5 µM
